Read-outs that look alike come from different tables or passages of the source.
Experiments:
ALK I1171N/D1203N = ALK I1171N/D1203N (Homo sapiens (Human), UniProt Q9UM73, D1203N/I1171N); assay: Biochemical kinase assay, ALK I1171N/D1203N; details: apparent inhibitory constant, kinase domain, Morrison equation; read-out: ALK-I1171N-D1203N Ki^app
In short: (§1)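 Kinase domains (in enzyme solution: ALK I1171N/D1203N 4 nM, ROS1 0.6 nM, ROS1-G2032R 0.5 nM, TRKB 1.5 nM) were mixed with substrate solution holding 2 mM ATP and 26 μM AQT0101 (ALK, ROS1) or AQT0104 (TRKB). Initial rates from 120-min fluorescence kinetics at 30 °C were fitted to the Morrison equation (Ki^app).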

Ba/F3 EML4-ALK v1 I1171N = Ba/F3 EML4-ALK v1 I1171N (Homo sapiens (Human), UniProt Q9HC35+Q9UM73, I1171N); assay: Ba/F3 cell proliferation assay, EML4-ALK v1 I1171N; type: cell-based; details: for IC50: Ba/F3 stable cells, 72 hours, CellTiter-Glo; for ETV6-TRKB / EML4-ALK v1 I1171N: TRKB selectivity, ratio of Ba/F3 IC50 values
Ba/F3 EML4-ALK v1 I1171N, sequence (Q9UM73 other isoform, or with tags, fused parts or gaps I1171N): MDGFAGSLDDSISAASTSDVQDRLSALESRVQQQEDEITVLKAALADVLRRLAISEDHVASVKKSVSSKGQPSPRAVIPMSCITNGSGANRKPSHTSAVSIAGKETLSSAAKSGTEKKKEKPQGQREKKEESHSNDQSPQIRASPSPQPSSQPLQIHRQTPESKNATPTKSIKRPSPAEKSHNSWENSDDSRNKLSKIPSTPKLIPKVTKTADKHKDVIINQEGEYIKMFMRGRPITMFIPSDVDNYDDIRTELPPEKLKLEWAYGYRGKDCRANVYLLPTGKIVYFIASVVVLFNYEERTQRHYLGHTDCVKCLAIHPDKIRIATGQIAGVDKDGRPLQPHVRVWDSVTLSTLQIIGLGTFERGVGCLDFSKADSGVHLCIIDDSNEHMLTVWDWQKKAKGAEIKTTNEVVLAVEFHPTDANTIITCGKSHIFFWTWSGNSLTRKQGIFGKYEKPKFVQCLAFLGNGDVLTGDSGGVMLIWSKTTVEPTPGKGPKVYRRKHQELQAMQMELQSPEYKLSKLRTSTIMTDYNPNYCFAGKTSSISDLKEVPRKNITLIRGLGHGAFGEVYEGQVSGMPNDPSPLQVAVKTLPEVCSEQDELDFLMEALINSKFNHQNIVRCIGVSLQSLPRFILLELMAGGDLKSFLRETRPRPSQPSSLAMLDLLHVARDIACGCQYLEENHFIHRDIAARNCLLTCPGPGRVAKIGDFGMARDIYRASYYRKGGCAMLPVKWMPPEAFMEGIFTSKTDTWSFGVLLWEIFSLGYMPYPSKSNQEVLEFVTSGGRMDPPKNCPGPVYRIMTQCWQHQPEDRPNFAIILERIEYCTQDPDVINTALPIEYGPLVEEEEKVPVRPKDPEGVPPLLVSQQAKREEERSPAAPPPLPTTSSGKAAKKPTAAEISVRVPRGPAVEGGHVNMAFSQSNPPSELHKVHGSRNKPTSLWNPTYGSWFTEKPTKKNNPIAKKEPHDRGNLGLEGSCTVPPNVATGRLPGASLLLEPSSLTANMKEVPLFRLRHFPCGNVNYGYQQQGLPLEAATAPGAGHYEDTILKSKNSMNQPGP
In short: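 Ba/F3 cells stably transformed with retroviral EML4-ALK v1 I1171N, selected by IL-3 withdrawal and puromycin, grown IL-3-free. Compounds added as 3-fold dilution series, 72 h incubation; viability by CellTiter-Glo luminescence. IC50 from percent inhibition by four-parameter logistic fit, binned A/B/C.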

TRKB-wt = TRKB-wt (Homo sapiens (Human), UniProt Q16620); assay: Biochemical kinase assay, TRKB-wt; details: apparent inhibitory constant, kinase domain, Morrison equation; read-out: TRKB-wt Ki^app
TRKB-wt, sequence (Q16620 538-807): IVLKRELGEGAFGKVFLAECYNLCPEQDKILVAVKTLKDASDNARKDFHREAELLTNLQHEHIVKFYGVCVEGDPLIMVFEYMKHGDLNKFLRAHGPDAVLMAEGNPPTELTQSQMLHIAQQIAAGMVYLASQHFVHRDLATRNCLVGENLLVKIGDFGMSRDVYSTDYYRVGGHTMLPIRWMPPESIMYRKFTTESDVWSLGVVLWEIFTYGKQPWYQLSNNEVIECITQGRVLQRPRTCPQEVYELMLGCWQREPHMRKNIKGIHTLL
In short: as §1

ROS1 = ROS1 (Homo sapiens (Human), UniProt P08922); assay: Biochemical kinase assay, ROS1-wt; details: apparent inhibitory constant, kinase domain, Morrison equation; read-out: ROS1-wt Ki^app
ROS1, sequence (P08922 1945-2222): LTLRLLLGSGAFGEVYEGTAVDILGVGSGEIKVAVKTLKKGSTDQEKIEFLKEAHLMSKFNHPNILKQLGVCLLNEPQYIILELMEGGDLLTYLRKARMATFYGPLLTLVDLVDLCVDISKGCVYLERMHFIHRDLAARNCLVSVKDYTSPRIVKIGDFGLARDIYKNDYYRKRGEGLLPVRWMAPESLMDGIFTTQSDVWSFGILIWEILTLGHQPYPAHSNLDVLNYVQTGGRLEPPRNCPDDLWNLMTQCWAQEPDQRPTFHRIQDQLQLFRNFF
Method: (§2) First, 250 nL of compound dissolved in DMSO (100-fold of the desired concentration) was dispensed into a 384-well plate. A 12.5 μL substrate solution containing ATP (2 mM) and fluorogenic phosphorylation substrate AQT0101 ([…] for ALK and ROS, AssayQuant) or AQT0104 (26 μM for TRKB, AssayQuant) in buffer (50 mM HEPES pH 7.5, […], 0.5 mM EGTA, 10 mM MgCl2) was added and mixed thoroughly. Then, a 12.5 μL kinase solution containing ALK (1.5 nM, Carna, 08-518), ALK I1171N/D1203N (4 nM, SignalChem, custom-made), ROS1 (0.6 nM, Carma, 08-163), ROS1-G2032R (0.5 nM, SignalChem, R14-121BG), or TRKB-wt (1.5 nM, SignalChem, N17-11G) kinase domains in buffer ([…] pH 7.5, 0.01% Brij-[…], 0.4 mg/mL BSA, 0.5 mM EGTA, and 10 mM MgCl2) was added and mixed thoroughly. The plate was sealed and read by SpectraMax Paradigm at λ=485 nm every 2 minutes for 120 minutes at 30° C. Initial rates of reaction (v) were calculated from the change in fluorescence intensity over time during the initial, linear portion of the reaction. Finally, apparent inhibitory constants (Ki^app) were determined from regression of v and I (inhibitor concentration) to Morrison Equation (E=enzyme concentration): […]
(§3) Compound potency can be interpreted by binning Ki^app values against the targets: bin A for high potency, Ki^app<50 nM; bin B for medium potency, 50 nM≤Ki^app<500 nM; and bin C for low potency, Ki^app≥500 nM. […] “nd” means not determined.

ROS1-G2032R = ROS1-G2032R (Homo sapiens (Human), UniProt P08922, G2032R); assay: Biochemical kinase assay, ROS1-G2032R; details: apparent inhibitory constant, kinase domain, Morrison equation; read-out: ROS1-G2032R Ki^app
ROS1-G2032R, sequence (P08922 1945-2222 G2032R): as the sequence (P08922 1945-2222) above, with G88R counted along it
Method: as §2, §3

Ba/F3 ETV6-TRKB = Ba/F3 ETV6-TRKB (Homo sapiens, UniProt Q16620); assay: Ba/F3 cell proliferation assay, ETV6-TRKB; type: cell-based
Ba/F3 ETV6-TRKB, sequence (Q16620 32-822 limits assumed, change not shown): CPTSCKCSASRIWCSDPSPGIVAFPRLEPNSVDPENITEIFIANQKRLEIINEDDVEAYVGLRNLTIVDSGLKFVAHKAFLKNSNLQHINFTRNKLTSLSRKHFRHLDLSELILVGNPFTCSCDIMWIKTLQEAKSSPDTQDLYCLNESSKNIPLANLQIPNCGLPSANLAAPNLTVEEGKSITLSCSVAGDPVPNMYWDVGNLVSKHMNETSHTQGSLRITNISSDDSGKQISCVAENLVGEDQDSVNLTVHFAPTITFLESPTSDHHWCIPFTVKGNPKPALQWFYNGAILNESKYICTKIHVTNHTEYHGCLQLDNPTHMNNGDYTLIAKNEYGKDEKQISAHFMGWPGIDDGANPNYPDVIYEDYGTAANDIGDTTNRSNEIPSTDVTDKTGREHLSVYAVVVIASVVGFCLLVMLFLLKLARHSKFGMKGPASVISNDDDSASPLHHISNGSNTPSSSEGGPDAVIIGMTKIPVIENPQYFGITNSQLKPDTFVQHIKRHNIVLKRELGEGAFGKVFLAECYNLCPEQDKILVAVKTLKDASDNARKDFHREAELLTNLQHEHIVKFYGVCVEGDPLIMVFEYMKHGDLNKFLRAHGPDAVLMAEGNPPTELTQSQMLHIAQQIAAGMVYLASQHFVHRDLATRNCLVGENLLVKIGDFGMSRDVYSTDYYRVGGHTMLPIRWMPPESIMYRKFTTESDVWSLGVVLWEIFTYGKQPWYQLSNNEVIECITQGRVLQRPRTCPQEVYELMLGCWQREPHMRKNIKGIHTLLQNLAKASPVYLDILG
In short: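 Growth inhibition after 72 h compound exposure (3-fold series) was measured by CellTiter-Glo in IL-3-independent Ba/F3 cells stably expressing ETV6-TRKB. A four-parameter logistic fit of percent inhibition versus concentration gave IC50.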

[1] = target: Ba/F3 EML4-ALK v1 I1171N/D1203N (Homo sapiens (Human), UniProt Q9HC35+Q9UM73, D1203N/I1171N); assay: Ba/F3 cell proliferation assay, EML4-ALK v1 I1171N/D1203N; type: cell-based; details: for IC50: Ba/F3 stable cells, 72 hours, CellTiter-Glo
Ba/F3 EML4-ALK v1 I1171N/D1203N, sequence (Q9UM73 other isoform, or with tags, fused parts or gaps I1171N/D1203N): as the sequence (Q9UM73 other isoform, or with tags, fused parts or gaps I1171N) above, with D642N counted along it
In short: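 Viability read by CellTiter-Glo luminescence after 72 h exposure to a 3-fold compound dilution series, with IC50 from four-parameter logistic regression. Cells were Ba/F3 rendered IL-3-independent through retroviral expression of EML4-ALK v1 I1171N/D1203N, puromycin-selected.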

[2] = Ba/F3 stable cells, 72 hours, CellTiter-Glo; read-out: ETV6-TRKB IC50
[3] = TRKB selectivity, ratio of Ba/F3 IC50 values

ALK I1171N/D1203N, sequence (Q9UM73 1116-1392 I1171N/D1203N): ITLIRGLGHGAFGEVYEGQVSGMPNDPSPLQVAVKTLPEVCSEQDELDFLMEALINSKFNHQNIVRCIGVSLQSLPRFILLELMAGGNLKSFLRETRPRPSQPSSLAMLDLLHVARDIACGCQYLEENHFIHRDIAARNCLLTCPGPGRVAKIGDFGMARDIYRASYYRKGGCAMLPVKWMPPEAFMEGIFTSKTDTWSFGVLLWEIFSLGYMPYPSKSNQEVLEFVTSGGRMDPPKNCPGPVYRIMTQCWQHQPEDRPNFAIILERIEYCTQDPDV

Ki (ALK I1171N/D1203N) [nM] | IC50 (Ba/F3 EML4-ALK v1 I1171N) [nM] | Ki (TRKB-wt) [nM] | Ki (ROS1) [nM] | Ki (ROS1-G2032R) [nM] | IC50 (Ba/F3 ETV6-TRKB; [2]) [nM] | IC50 [1] [nM] | Compound | ETV6-TRKB / EML4-ALK v1 I1171N (Ba/F3 EML4-ALK v1 I1171N) | ETV6-TRKB / EML4-ALK v1 I1171N/D1203N [1, 3] | Selectivity for Ba/F3 EML4-ALK v1 I1171N-D1203N IC50 over Ba/F3 ETV6-TRKB IC50 ([1]; TRKB selectivity, ratio of Ba/F3 IC50 values, Table 6 bins) | IC50 (Ba/F3 ETV6-TRKB; read-out: ETV6-TRKB IC50; Ba/F3 stable cells, 72 hours, CellTiter-Glo) [nM]
< 50 | 0.1 to 50 | < 50 | < 50 | < 50 | 50 to 500 | 0.1 to 50 | CCn1nc(C(=O)N(C)C)c2c1-c1cnc(N)c(c1)O[C@H](C)c1cc(F)ccc1-c1nn(C)cc1C2 [Example 7, N,N-dimethyl-(R)-22-amino-3-ethyl-16-fluoro-10-methyl-19-methyl-20-oxa-3,4,10,11,23-pentaazapentacyclo[19.3.1.0^2,6.0^8,12.0^13,18]pentacosa-1(24),2(6),4,8,11,13,15,17.21(25),22-decaene-5-carboxamide] | B (bin B for high selectivity, ratio≥10-fold but<30) | C (bin C for moderate selectivity, ratio≥1 but<10) | – | –
< 50 | – | 50 to 500 | < 50 | < 50 | > 500 | 50 to 500 | C[C@H]1Oc2cc(cnc2N)-c2c(c(C(=O)N3CCC3)nn2CC2CC2)Cc2cn(C)nc2-c2ccc(F)cc21 [Example 9, {(R)-22-amino-3-(cyclopropylmethyl)-16-fluoro-10-methyl-19-methyl-20-oxa-3,4,10,11,23-pentaazapentacyclo[19.3.1.0^2,^6.0^8,^12.0^13,^18]pentacosa-1(24),2(6),4,8,11,13,15,17,21(25),22-decaen-5-yl}(1-azetidinyl)methanone] | – | B (bin B for high selectivity, ratio≥10-fold but<30) | – | –
– | 50 to 500 | – | < 50 | < 50 | – | > 500 | C[C@H]1Oc2cc(cnc2N)-c2c(c(C#N)nn2CC2CC2)Cc2cccnc2-c2ccc(F)cc21 [Example 66, (R)-23-amino-3-(cyclopropylmethyl)-17-fluoro-20-methyl-21-oxa-3,4,12,24-tetraazapentacyclo[20.3.1.0^2,^6.0^8,^13.0^14,^19]hexacosa-1(25),2(6),4,8(13),9,11,14,16,18,22(26),23-undecaene-5-carbonitrile] | – | – | – | –
< 50 | 0.1 to 50 | 50 to 500 | < 50 | 50 to 500 | 50 to 500 | 0.1 to 50 | C[C@H]1Oc2cc(cnc2N)-c2c(nn(C)c2C#N)C(=O)c2cccnc2-c2ccc(F)cc21 [Example 49, (R)-23-amino-17-fluoro-4-methyl-20-methyl-7-oxo-21-oxa-4,5,12,24-tetraazapentacyclo[20.3.1.0^2,6.0^8,13.0^14,19]hexacosa-1(25),2,5,8(13),9,11.14,16,18,22(26),23-undecaene-3-carbonitrile] | A (bin A for very high selectivity, ratio≥30-fold) | A (bin A for very high selectivity, ratio≥30-fold) | AA (bin AA for the selectivity with the ratio≥30-fold) | –
– | 50 to 500 | – | < 50 | < 50 | 50 to 500 | > 500 | CCn1nc(C#N)c2c1-c1cnc(N)c(c1)O[C@H](C)c1cc(F)ccc1-c1nn(C)cc1C2 [Example 4, (R)-22-amino-3-ethyl-16-fluoro-10-methyl-19-methyl-20-oxa-3,4,10,11,23-pentaazapentacyclo[19.3.1.0^2,^6.0^8,^12.0^13,^18]pentacosa-1(24),2(6),4,8,11,13,15,17,21(25),22-decaene-5-carbonitrile] | C (bin C for moderate selectivity, ratio≥1 but<10) | D (bin D for low selectivity, ratio<1) | – | –
< 50 | 0.1 to 50 | 50 to 500 | – | – | > 500 | 0.1 to 50 | C[C@H]1Oc2cc(cnc2N)-c2c(c(C(=O)N(C)C)nn2CC2CC2)Cc2cccnc2-c2ccc(F)cc21 [Example 10, N,N-dimethyl-(R)-23-amino-3-(cyclopropylmethyl)-17-fluoro-20-methyl-21-oxa-3,4,12,24-tetraazapentacyclo[20.3.1.0^2,^6.0^8,^13.0^14,^19]hexacosa-1(25),2(6),4,8(13),9,11,14,16,18,22(26),23-undecaene-5-carboxamide] | A (bin A for very high selectivity, ratio≥30-fold) | A (bin A for very high selectivity, ratio≥30-fold) | – | –
< 50 | 0.1 to 50 | < 50 | – | – | 50 to 500 | 50 to 500 | CCn1nc(C(N)=O)c2c1-c1cnc(N)c(c1)O[C@H](C)c1cc(F)ccc1-c1nn(C)cc1C2 [Example 5, (R)-22-amino-3-ethyl-16-fluoro-10-methyl-19-methyl-20-oxa-3,4,10,11,23-pentaazapentacyclo[19.3.1.0^2,6.0^8,12.0^13,18]pentacosa-1(24),2(6),4,8,11.13,15,17,21(25),22-decaene-5-carboxamide] | C (bin C for moderate selectivity, ratio≥1 but<10) | D (bin D for low selectivity, ratio<1) | – | –

Compound | Ki (ALK I1171N/D1203N) [nM] | IC50 (Ba/F3 EML4-ALK v1 I1171N) [nM] | Ki (TRKB-wt) [nM] | Ki (ROS1) [nM] | Ki (ROS1-G2032R) [nM] | IC50 (Ba/F3 ETV6-TRKB; [2]) [nM] | IC50 [1] [nM] | ETV6-TRKB / EML4-ALK v1 I1171N (Ba/F3 EML4-ALK v1 I1171N) | ETV6-TRKB / EML4-ALK v1 I1171N/D1203N [1, 3] | Selectivity for Ba/F3 EML4-ALK v1 I1171N-D1203N IC50 over Ba/F3 ETV6-TRKB IC50 ([1]; TRKB selectivity, ratio of Ba/F3 IC50 values, Table 6 bins) | IC50 (Ba/F3 ETV6-TRKB; read-out: ETV6-TRKB IC50; Ba/F3 stable cells, 72 hours, CellTiter-Glo) [nM]
Cc1nc2c(s1)Cc1c(c(C#N)nn1C(=O)N(C)C)-c1cnc(N)c(c1)O[C@H](C)c1cc(F)ccc1-2 [Example 58, N,N-dimethyl-(R)-22-amino-3-cyano-16-fluoro-10,19-dimethyl-20-oxa-9-thia-4,5,11,23-tetraazapentacyclo[19.3.1.0^2,^6.0^8,^12.0^13,^18]pentacosa-1(24),2(6),3,8(12),10,13,15,17,21(25),22-decaene-5-carboxamide] | < 50 | 0.1 to 50 | 50 to 500 | < 50 | < 50 | > 500 | 50 to 500 | A (bin A for very high selectivity, ratio≥30-fold) | C (bin C for moderate selectivity, ratio≥1 but<10) | – | –
C[C@H]1Oc2cc(cnc2N)-c2c(CC3CC3)nn(C(=O)N(C)C)c2Cc2cccnc2-c2ccc(F)cc21 [Example 20, (R)-5-(N,N-dimethylcarbamoyl)-3-(cyclopropylmethyl)-17-fluoro-20-methyl-21-oxa-4,5,12,24-tetraazapentacyclo[20.3.1.0^2,^6.0^8,^13.0^14,^19]hexacosa-1(25),2(6),3,8(13),9,11,14,16,18,22(26),23-undecaen-23-ylamine] | < 50 | 0.1 to 50 | 50 to 500 | – | – | – | 0.1 to 50 | A (bin A for very high selectivity, ratio≥30-fold) | A (bin A for very high selectivity, ratio≥30-fold) | – | 50 to 500

Reference: US20250326769A1, “HETEROAROMATIC MACROCYCLIC ETHER CHEMOTHERAPEUTIC AGENTS” (Nuvalent, Inc., priority 2022, published 2025)
